# According to the supplement of paper PMC10307832:
# How the values were obtained:
# Experiment in all cases: relative viability (nuclei count vs DMSO), 5 days (fraction); higher = more cells survive
# EBC-1 = system: EBC-1
# Outline: (§1)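 Values are medians from duplicate plates. Each reflects relative viability, defined as the nuclei count of treated wells over that of vehicle wells. Lung cancer cell lines in 1536-well plates were pin-tool dosed one day after seeding with one drug alone or with a fixed anchor-drug dose plus five library-drug doses (not always all listed) in √10 steps, then fixed, stained and imaged at 4× after 5 days.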
# NCI-H1703 = system: NCI-H1703
# Outline: as §1
# IA-LM = system: IA-LM
# Outline: as §1
# NCI-H1623 = system: NCI-H1623
# Outline: as §1
# NCI-H2009 = system: NCI-H2009
# Outline: as §1
# A-427 = system: A-427
# Outline: as §1
# NCI-H1734 = system: NCI-H1734
# Outline: as §1
# NCI-H1299 = system: NCI-H1299
# Outline: as §1
# Calu-6 = system: Calu-6
# Outline: as §1
# A549 = system: A549
# Outline: as §1
# UMC-11 = system: UMC-11
# Outline: as §1
# NCI-H1650 = system: NCI-H1650
# Outline: as §1
# CAL-12T = system: CAL-12T
# Outline: as §1
# LK-2 = system: LK-2
# Outline: as §1
smiles,measurement,setting,value
CCN(CC)CCCCNc1ncc2cc(-c3cc(OC)cc(OC)c3)c(NC(=O)NC(C)(C)C)nc2n1 + COc1cc2c(Oc3ccc(NC(=O)C4(C(=O)Nc5ccc(F)cc5)CC4)cc3F)ccnc2cc1OCCCN1CCOCC1 [Foretinib] (partner 0.25 µM),relative viability,EBC-1; first compound 0.01 µM,0.103
same,relative viability,EBC-1; first compound 0.03162 µM,0.111
same,relative viability,EBC-1; first compound 0.1 µM,0.12
same,relative viability,EBC-1; first compound 0.3162 µM,0.104
same,relative viability,EBC-1; first compound 1 µM,0.106
same,relative viability,NCI-H1703; first compound 0.01 µM,0.314
same,relative viability,NCI-H1703; first compound 0.1 µM,0.388
same,relative viability,NCI-H1703; first compound 0.3162 µM,0.308
same,relative viability,NCI-H1703; first compound 1 µM,0.373
same,relative viability,IA-LM; first compound 0.01 µM,1.19
same,relative viability,IA-LM; first compound 0.03162 µM,1.33
same,relative viability,IA-LM; first compound 0.1 µM,1.17
same,relative viability,IA-LM; first compound 0.3162 µM,1.16
same,relative viability,IA-LM; first compound 1 µM,1.23
same,relative viability,NCI-H1623; first compound 0.01 µM,0.859
same,relative viability,NCI-H1623; first compound 0.03162 µM,0.674
same,relative viability,NCI-H1623; first compound 0.1 µM,0.876
same,relative viability,NCI-H1623; first compound 0.3162 µM,0.945
same,relative viability,NCI-H1623; first compound 1 µM,0.874
same,relative viability,NCI-H2009; first compound 0.01 µM,1.33
same,relative viability,NCI-H2009; first compound 0.03162 µM,1.25
same,relative viability,NCI-H2009; first compound 0.1 µM,1.22
same,relative viability,NCI-H2009; first compound 0.3162 µM,1.29
same,relative viability,NCI-H2009; first compound 1 µM,1.18
same,relative viability,A-427; first compound 0.01 µM,1.18
same,relative viability,A-427; first compound 0.03162 µM,1.11
same,relative viability,A-427; first compound 0.1 µM,1.18
same,relative viability,A-427; first compound 0.3162 µM,1.1
same,relative viability,A-427; first compound 1 µM,0.99
same,relative viability,NCI-H1734; first compound 0.01 µM,0.863
same,relative viability,NCI-H1734; first compound 0.03162 µM,0.828
same,relative viability,NCI-H1734; first compound 0.1 µM,0.83
same,relative viability,NCI-H1734; first compound 0.3162 µM,0.943
same,relative viability,NCI-H1734; first compound 1 µM,0.694
same,relative viability,NCI-H1299; first compound 0.01 µM,1.12
same,relative viability,NCI-H1299; first compound 0.03162 µM,1.1
same,relative viability,NCI-H1299; first compound 0.1 µM,1.16
same,relative viability,NCI-H1299; first compound 0.3162 µM,1.08
same,relative viability,NCI-H1299; first compound 1 µM,1.02
same,relative viability,Calu-6; first compound 0.01 µM,0.97
same,relative viability,Calu-6; first compound 0.03162 µM,0.994
same,relative viability,Calu-6; first compound 0.1 µM,1.02
same,relative viability,Calu-6; first compound 0.3162 µM,0.902
same,relative viability,Calu-6; first compound 1 µM,0.86
same,relative viability,A549; first compound 0.01 µM,1.07
same,relative viability,A549; first compound 0.03162 µM,0.841
same,relative viability,A549; first compound 0.1 µM,1.1
same,relative viability,A549; first compound 0.3162 µM,1.17
same,relative viability,A549; first compound 1 µM,0.758
same,relative viability,UMC-11; first compound 0.01 µM,0.952
same,relative viability,UMC-11; first compound 0.03162 µM,1.02
same,relative viability,UMC-11; first compound 0.1 µM,1.14
same,relative viability,UMC-11; first compound 0.3162 µM,1.19
same,relative viability,UMC-11; first compound 1 µM,1.02
same,relative viability,NCI-H1650; first compound 0.01 µM,1.26
same,relative viability,NCI-H1650; first compound 0.03162 µM,1.11
same,relative viability,NCI-H1650; first compound 0.1 µM,1.1
same,relative viability,NCI-H1650; first compound 0.3162 µM,1.2
same,relative viability,NCI-H1650; first compound 1 µM,1.12
same,relative viability,CAL-12T; first compound 0.01 µM,1.13
same,relative viability,CAL-12T; first compound 0.03162 µM,1.2
same,relative viability,CAL-12T; first compound 0.1 µM,1.35
same,relative viability,CAL-12T; first compound 0.3162 µM,1.23
same,relative viability,CAL-12T; first compound 1 µM,1.19
same,relative viability,LK-2; first compound 0.01 µM,1.06
same,relative viability,LK-2; first compound 0.03162 µM,1.13
same,relative viability,LK-2; first compound 0.1 µM,1.66
same,relative viability,LK-2; first compound 0.3162 µM,0.962
same,relative viability,LK-2; first compound 1 µM,0.663
